Laboratory results published in ChEMBL document CHEMBL4513141, “CO-ADD screening of NIH (USA) - Clinical Collection” (2021).
In brackets after ≈: the same amount, converted by molar mass. Counter-ions that a name gives are not always drawn.

How the values were obtained:
HEK293 = assay: cells; format: functional, Homo sapiens, ATCC CRL1573; settings: Homo sapiens, ATCC CRL1573, HEK293; ASSAY_TEST Inhibition of Cell Viability; detection method Resazurin; Fluorescence (ex560/em590); MEDIA DMEM with 10% FBS; plate type 384well; TC; CORNING #3712; time 18 hr
Staphylococcus aureus = assay: microbe, parasite or virus in culture; settings: ATCC 43300, 18 h, ASSAY_TEST Inhibition of Bacterial Growth, detection method Absorption (OD600), MEDIA CAMHB, plate type 384well, NBS, CORNING #3640
Description: Antibacterial activity against Staphylococcus aureus MRSA ATCC 43300 (CO-ADD:GP_020); MIC in CAMBH media, using NBS plates, by OD(600)

Escherichia coli = assay: microbe, parasite or virus in culture; settings: ATCC 25922, 18 h, ASSAY_TEST Inhibition of Bacterial Growth, detection method Absorption (OD600), MEDIA CAMHB, plate type 384well, NBS, CORNING #3640
Description: Antibacterial activity against Escherichia coli ATCC 25922 (CO-ADD:GN_001); MIC in CAMBH media using NBS plates, by OD(600)

Klebsiella pneumoniae = assay: microbe, parasite or virus in culture; settings: ATCC 700603, 18 h, ASSAY_TEST Inhibition of Bacterial Growth, detection method Absorption (OD600), MEDIA CAMHB, plate type 384well, NBS, CORNING #3640
Description: Antibacterial activity against Klebsiella pneumoniae MDR ATCC 70063 (CO-ADD:GN_003); MIC in CAMBH media using NBS plates, by OD(600)

Pseudomonas aeruginosa = assay: microbe, parasite or virus in culture; settings: ATCC 27853, 18 h, ASSAY_TEST Inhibition of Bacterial Growth, detection method Absorption (OD600), MEDIA CAMHB, plate type 384well, NBS, CORNING #3640
Description: Antibacterial activity against Pseudomonas aeruginosa ATCC 27853 (CO-ADD:GN_042); MIC in CAMBH media using NBS plates, by OD(600)

Acinetobacter baumannii = assay: microbe, parasite or virus in culture; settings: ATCC 19606, 18 h, ASSAY_TEST Inhibition of Bacterial Growth, detection method Absorption (OD600), MEDIA CAMHB, plate type 384well, NBS, CORNING #3640
Description: Antibacterial activity against Acinetobacter baumannii ATCC 19606 (CO-ADD:GN_034); MIC in CAMBH media using NBS plates, by OD600

Candida albicans = assay: microbe, parasite or virus in culture; settings: ATCC 90028, ASSAY_TEST Inhibition of Fungal Growth, detection method Absorption (OD530), plate type 384well, NBS, CORNING #3640
Description: Antifungal activity against Candida albicans ATCC 90028 (CO-ADD:FG_001); MIC in YNB media using NBS plates, by OD630

Description for Cryptococcus neoformans: Antifungal activity against Cryptococcus neoformans H99 ATCC 208821 (CO-ADD:FG_002); MIC in YNB media using NBS plates, by Resazurin OD(600-570)

Row | Compound | CC50 (HEK293) | MIC (Cryptococcus neoformans) | MIC (Staphylococcus aureus) | MIC (Escherichia coli) | MIC (Klebsiella pneumoniae) | MIC (Pseudomonas aeruginosa) | MIC (Acinetobacter baumannii) | MIC (Candida albicans)
1 | C/C(=C\C(=O)OCCCCCCCCC(=O)O)C[C@@H]1OC[C@H](C[C@@H]2O[C@H]2[C@@H](C)[C@H](C)O)[C@@H](O)[C@H]1O [MUPIROCIN] | > 10 µM | > 10 µM | 0.312 µM (≈ 0.156 µg/mL) | > 10 µM | > 10 µM | > 10 µM | > 10 µM | 10 µM (≈ 5.01 µg/mL)
2 | CCN1CCN(C(=O)N[C@@H](C(=O)N[C@@H]2C(=O)N3[C@@H]2SC(C)(C)[C@@H]3C(=O)O)c2ccccc2)C(=O)C1=O [PIPERACILLIN SODIUM] | > 10 µM | > 10 µM | > 10 µM | 10 µM | > 10 µM | > 10 µM | 10 µM | > 10 µM
3 | Clc1ccc(CO/N=C(\Cn2ccnc2)c2ccc(Cl)cc2Cl)c(Cl)c1 [OXICONAZOLE NITRATE] | > 10 µM | ≤ 0.0781 µM | > 10 µM | > 10 µM | > 10 µM | > 10 µM | > 10 µM | ≤ 0.0781 µM
4 | CC1(C)SC2C(NC(=O)Cc3ccccc3)C(=O)N2C1C(=O)O (centres undefined) | > 10 µM | > 10 µM | > 10 µM | > 10 µM | > 10 µM | > 10 µM | > 10 µM | > 10 µM
5 | O=c1c2ccccc2[se]n1-c1ccccc1 [EBSELEN] | > 10 µM | 2.5 µM (≈ 0.685 µg/mL) | > 10 µM | > 10 µM | > 10 µM | > 10 µM | > 10 µM | 5 µM (≈ 1.37 µg/mL)
6 | CO[C@H]1/C=C/O[C@@]2(C)Oc3c(C)c(O)c4c(O)c(c(C=NN5CCN(C)CC5)c(O)c4c3C2=O)NC(=O)/C(C)=C\C=C\[C@H](C)[C@H](O)[C@@H](C)[C@@H](O)[C@@H](C)[C@H](OC(C)=O)[C@@H]1C | > 10 µM | > 10 µM | ≤ 0.0781 µM | 10 µM (≈ 8.23 µg/mL) | > 10 µM | 2.5 µM (≈ 2.06 µg/mL) | > 10 µM | > 10 µM
7 | NC(=O)c1ncn(C2OC(CO)C(O)C2O)n1 (centres undefined) | > 10 µM | > 10 µM | > 10 µM | > 10 µM | > 10 µM | > 10 µM | > 10 µM | > 10 µM
8 | NC1CCN(c2nc3c(cc2F)c(=O)c(C(=O)O)cn3-c2ccc(F)cc2F)C1 (centres undefined) [TOSUFLOXACIN TOSYLATE] | > 10 µM | > 10 µM | ≤ 0.0781 µM | ≤ 0.0781 µM | 1.25 µM | 0.312 µM | 0.625 µM | > 10 µM
9 | c1ccc(-c2ccc(C(c3ccccc3)n3ccnc3)cc2)cc1 (centres undefined) [BIFONAZOLE] | > 10 µM | 10 µM (≈ 3.1 µg/mL) | > 10 µM | > 10 µM | > 10 µM | > 10 µM | > 10 µM | > 10 µM
10 | O=c1[nH]cnc2c1ncn2[C@H]1CC[C@@H](CO)O1 [DIDANOSINE] | > 10 µM | > 10 µM | > 10 µM | > 10 µM | > 10 µM | > 10 µM | > 10 µM | > 10 µM
11 | CC1(C)SC2C(NC(=O)C(N)c3ccccc3)C(=O)N2C1C(=O)O (centres undefined) | > 10 µM | > 10 µM | > 10 µM | > 10 µM | > 10 µM | > 10 µM | > 10 µM | > 10 µM
12 | CCn1cc(C(=O)O)c(=O)c2cc(F)c(N3CCN(C)CC3)cc21 [PEFLOXACIN MESYLATE] | > 10 µM | > 10 µM | 1.25 µM | 0.156 µM | 5 µM | 1.25 µM | 10 µM | > 10 µM
13 | Clc1ccccc1C(c1ccccc1)(c1ccccc1)n1ccnc1 [CLOTRIMAZOLE] | > 10 µM | 1.25 µM (≈ 0.431 µg/mL) | > 10 µM | > 10 µM | > 10 µM | > 10 µM | > 10 µM | 0.156 µM (≈ 0.0539 µg/mL)
14 | C=CC[C@@H]1C=C(C)C[C@H](C)C[C@H](OC)[C@H]2O[C@@](O)(C(=O)C(=O)N3CCCC[C@H]3C(=O)O[C@H](/C(C)=C/[C@@H]3CC[C@@H](O)[C@H](OC)C3)[C@H](C)[C@@H](O)CC1=O)[C@H](C)C[C@@H]2OC | > 10 µM | ≤ 0.0781 µM | > 10 µM | > 10 µM | > 10 µM | > 10 µM | > 10 µM | > 10 µM
15 | CC1COc2c(N3CCN(C)CC3)c(F)cc3c(=O)c(C(=O)O)cn1c23 (centres undefined) [OFLOXACIN] | > 10 µM | > 10 µM | 1.25 µM (≈ 0.452 µg/mL) | ≤ 0.0781 µM | 5 µM (≈ 1.81 µg/mL) | 1.25 µM (≈ 0.452 µg/mL) | 5 µM (≈ 1.81 µg/mL) | > 10 µM
16 | OC(Cn1cncn1)(Cn1cncn1)c1ccc(F)cc1F [FLUCONAZOLE] | > 10 µM | > 10 µM | > 10 µM | > 10 µM | > 10 µM | > 10 µM | > 10 µM | 2.5 µM (≈ 0.766 µg/mL)
17 | O=C(O)C[C@H](O)C[C@H](O)/C=C/c1c(C2CC2)nc2ccccc2c1-c1ccc(F)cc1 [PITAVASTATIN CALCIUM] | > 10 µM | 10 µM | > 10 µM | > 10 µM | > 10 µM | > 10 µM | > 10 µM | 2.5 µM
18 | Cc1onc(-c2ccccc2)c1C(=O)NC1C(=O)N2C1SC(C)(C)C2C(=O)O (centres undefined) | > 10 µM | > 10 µM | > 10 µM | > 10 µM | > 10 µM | > 10 µM | > 10 µM | > 10 µM
19 | CN(CCCN1c2ccccc2CCc2ccccc21)CC(=O)c1ccc(Cl)cc1 [LOFEPRAMINE] | > 10 µM | > 10 µM | > 10 µM | > 10 µM | > 10 µM | > 10 µM | > 10 µM | > 10 µM
20 | NC(=O)OCC(COC(N)=O)c1ccccc1 | > 10 µM | > 10 µM | > 10 µM | > 10 µM | > 10 µM | > 10 µM | > 10 µM | > 10 µM
21 | CC(=O)[C@]1(O)Cc2c(O)c3c(c(O)c2[C@@H](O[C@H]2C[C@H](N)[C@H](O)[C@H](C)O2)C1)C(=O)c1ccccc1C3=O [IDARUBICIN HYDROCHLORIDE] | > 10 µM | > 10 µM | 5 µM | > 10 µM | > 10 µM | > 10 µM | > 10 µM | > 10 µM
22 | CO[C@@]1(NC(=O)Cc2cccs2)C(=O)N2C(C(=O)O)=C(COC(N)=O)CS[C@@H]21 [CEFOXITIN SODIUM] | > 10 µM | > 10 µM | > 10 µM | 10 µM | > 10 µM | > 10 µM | > 10 µM | > 10 µM
23 | COc1cccc2c1C(=O)c1c(O)c3c(c(O)c1C2=O)C[C@@](O)(C(=O)CO)C[C@@H]3O[C@H]1C[C@H](N)[C@@H](O)[C@H](C)O1 [EPIRUBICIN HYDROCHLORIDE] | 1.14 µM | > 10 µM | 10 µM | > 10 µM | > 10 µM | > 10 µM | > 10 µM | > 10 µM
24 | CN(C)[C@@H]1C(=O)C(C(N)=O)=C(O)[C@@]2(O)C(O)=C3C(=O)c4c(O)cccc4[C@@](C)(O)[C@H]3[C@H](O)[C@@H]12 | > 10 µM | > 10 µM | 1.25 µM (≈ 0.576 µg/mL) | 5 µM (≈ 2.3 µg/mL) | > 10 µM | 10 µM (≈ 4.6 µg/mL) | > 10 µM | > 10 µM
25 | Cc1noc(NS(=O)(=O)c2ccc(N)cc2)c1C [SULFISOXAZOLE] | > 10 µM | > 10 µM | > 10 µM | > 10 µM | > 10 µM | > 10 µM | > 10 µM | > 10 µM
26 | O=C(NC(CO)C(O)c1ccc([N+](=O)[O-])cc1)C(Cl)Cl (centres undefined) | > 10 µM | > 10 µM | > 10 µM | 10 µM (≈ 3.23 µg/mL) | > 10 µM | > 10 µM | > 10 µM | > 10 µM
27 | CCc1c2c(nc3ccc(OC(=O)N4CCC(N5CCCCC5)CC4)cc13)-c1cc3c(c(=O)n1C2)COC(=O)[C@]3(O)CC [IRINOTECAN HYDROCHLORIDE] | 0.341 µM | > 10 µM | > 10 µM | > 10 µM | > 10 µM | > 10 µM | > 10 µM | > 10 µM
28 | Oc1c(Cl)cc(Cl)c2cccnc12 [CHLOROXINE] | > 10 µM | 2.5 µM (≈ 0.535 µg/mL) | > 10 µM | > 10 µM | > 10 µM | > 10 µM | > 10 µM | 1.25 µM (≈ 0.268 µg/mL)
